Laboratory results as given in PubChem BioAssay (NCI).
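In this assay, cells in 96-well plates receive the compound at five concentrations for 48 hours. Endpoints are linearly interpolated between the surrounding concentrations. GI50: concentration for 50% inhibition of growth. Definition used: TGI = concentration required for complete inhibition of growth.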

How the values were obtained:
Test in all cases: NCI anticancer screen, dose series, 48 h
[1] = test system: HS 578T breast
[2] = test system: NCI-H23 lung
[3] = test system: HCT-15 colon
[4] = test system: SK-MEL-5 melanoma
[5] = test system: HOP-62 NSCLC
[6] = test system: OVCAR-3 ovarian
[7] = test system: IGROV1 ovarian
[8] = test system: OVCAR-5 ovarian
[9] = test system: MCF7 breast
[10] = test system: SW-620 colon
[11] = test system: NCI/ADR-RES ovarian
[12] = test system: NCI-H460 lung
[13] = test system: SNB-75 CNS
[14] = test system: A549 NSCLC
[15] = test system: M14 melanoma
[16] = test system: SF-268 CNS
[17] = test system: DU-145 prostate
[18] = test system: SNB-19 CNS
[19] = test system: SK-MEL-2 melanoma
[20] = test system: SF-539 CNS
[21] = test system: HL-60(TB) leukemia
[22] = test system: TK-10 renal
[23] = test system: SK-MEL-28 melanoma
[24] = test system: CCRF-CEM leukemia
[25] = test system: PC-3 prostate
[26] = test system: UACC-62 melanoma
[27] = test system: T-47D breast
[28] = test system: OVCAR-4 ovarian
[29] = test system: MDA-MB-231 breast
[30] = test system: OVCAR-8 ovarian
[31] = test system: RPMI-8226 leukemia
[32] = test system: ACHN renal
[33] = test system: UACC-257 melanoma
[34] = test system: HCC-2998 colon
[35] = test system: HCT-116 colon
[36] = test system: EKVX NSCLC
[37] = test system: MOLT-4 leukemia
[38] = test system: NCI-H226 lung
[39] = test system: CAKI-1 renal
[40] = test system: K-562 leukemia
[41] = test system: NCI-H522 lung
[42] = test system: HOP-92 NSCLC
[43] = test system: UO-31 renal
[44] = test system: A498 renal
[45] = test system: MDA-MB-435
[46] = test system: SR leukemia
[47] = test system: COLO 205 colon
[48] = test system: SF-295 CNS
[49] = test system: KM12 colon
[50] = test system: SN12C renal
[51] = test system: LOX IMVI melanoma
[52] = test system: HT29 colon
[53] = test system: BT-549 breast
[54] = test system: 786-0 renal
[55] = test system: U251 CNS
[56] = test system: RXF 393 renal
[57] = test system: MALME-3M melanoma
[58] = test system: SK-OV-3 ovarian

Q: COc1cc2c3c(n(CCCN4CCCC4)c(=O)c2cc1OC)-c1cc2c(cc1C3=O)OCO2 was tested. Which GI50 [1] did it give?
A: The GI50 was 2030 nM.

Q: What about the TGI [1] of the same molecule?
A: The TGI was 5080 nM.

Q: And the GI50 [2]?
A: The GI50 was 1630 nM.

Q: And the TGI [2]?
A: Its TGI is 3980 nM.

Q: And the GI50 [3]?
A: Its GI50 is 1430 nM.

Q: What about the TGI [3] of the same molecule?
A: Its TGI is 3100 nM.

Q: What about the GI50 [4] of the same molecule?
A: The GI50 was 4250 nM.

Q: And the TGI [4]?
A: The TGI was 9120 nM.

Q: What about the GI50 [5] of the same molecule?
A: Its GI50 is 650 nM.

Q: What about the TGI [5] of the same molecule?
A: The TGI was 2460 nM.

Q: What about the GI50 [6] of the same molecule?
A: The GI50 was 1570 nM.

Q: What about the TGI [6] of the same molecule?
A: Its TGI is 2980 nM.

Q: What about the GI50 [7] of the same molecule?
A: Its GI50 is 1420 nM.

Q: And the TGI [7]?
A: Its TGI is 3090 nM.

Q: What about the GI50 [8] of the same molecule?
A: Its GI50 is 1900 nM.

Q: And the TGI [8]?
A: Its TGI is 3500 nM.

Q: What about the GI50 [9] of the same molecule?
A: The GI50 was 228 nM.

Q: What about the TGI [9] of the same molecule?
A: Its TGI is 2210 nM.

Q: What about the GI50 [10] of the same molecule?
A: The GI50 was 624 nM.

Q: What about the TGI [10] of the same molecule?
A: The TGI was 3450 nM.

Q: What about the GI50 [11] of the same molecule?
A: Its GI50 is 1350 nM.

Q: What about the TGI [11] of the same molecule?
A: The TGI was 3680 nM.

Q: What about the GI50 [12] of the same molecule?
A: The GI50 was 206 nM.

Q: And the TGI [12]?
A: The TGI was 2240 nM.

Q: And the GI50 [13]?
A: Its GI50 is 286 nM.

Q: What about the TGI [13] of the same molecule?
A: Its TGI is 1960 nM.

Q: And the GI50 [14]?
A: The GI50 was 1400 nM.

Q: And the TGI [14]?
A: The TGI was 2850 nM.

Q: And the GI50 [15]?
A: The GI50 was 1500 nM.

Q: What about the TGI [15] of the same molecule?
A: The TGI was 3010 nM.

Q: What about the GI50 [16] of the same molecule?
A: The GI50 was 650 nM.

Q: And the TGI [16]?
A: Its TGI is 2370 nM.

Q: What about the GI50 [17] of the same molecule?
A: Its GI50 is 1310 nM.

Q: What about the TGI [17] of the same molecule?
A: The TGI was 2580 nM.

Q: What about the GI50 [18] of the same molecule?
A: Its GI50 is 1540 nM.

Q: And the TGI [18]?
A: The TGI was 3720 nM.

Q: And the GI50 [19]?
A: Its GI50 is 17100 nM.

Q: And the TGI [19]?
A: The TGI was 33600 nM.

Q: And the GI50 [20]?
A: Its GI50 is 1320 nM.

Q: What about the TGI [20] of the same molecule?
A: Its TGI is 2770 nM.

Q: What about the GI50 [21] of the same molecule?
A: The GI50 was 677 nM.

Q: And the TGI [21]?
A: The TGI was 1890 nM.

Q: And the GI50 [22]?
A: Its GI50 is 1930 nM.

Q: What about the TGI [22] of the same molecule?
A: The TGI was 3460 nM.

Q: And the GI50 [23]?
A: Its GI50 is 1710 nM.

Q: What about the TGI [23] of the same molecule?
A: The TGI was 3380 nM.

Q: And the GI50 [24]?
A: Its GI50 is 67.3 nM.

Q: What about the TGI [24] of the same molecule?
A: The TGI was 2310 nM.

Q: What about the GI50 [25] of the same molecule?
A: Its GI50 is 1470 nM.

Q: And the TGI [25]?
A: The TGI was 3840 nM.

Q: And the GI50 [26]?
A: Its GI50 is 1480 nM.

Q: And the TGI [26]?
A: Its TGI is 3480 nM.

Q: And the GI50 [27]?
A: The GI50 was 4700 nM.

Q: What about the TGI [27] of the same molecule?
A: The TGI was 11100 nM.

Q: And the GI50 [28]?
A: Its GI50 is 1770 nM.

Q: And the TGI [28]?
A: Its TGI is 3380 nM.

Q: And the GI50 [29]?
A: The GI50 was 1650 nM.

Q: What about the TGI [29] of the same molecule?
A: Its TGI is 3310 nM.

Q: And the GI50 [30]?
A: Its GI50 is 1360 nM.

Q: And the TGI [30]?
A: The TGI was 3090 nM.

Q: And the GI50 [31]?
A: The GI50 was 1250 nM.

Q: And the TGI [31]?
A: The TGI was 4500 nM.

Q: And the GI50 [32]?
A: The GI50 was 1360 nM.

Q: And the TGI [32]?
A: The TGI was 2670 nM.

Q: And the GI50 [33]?
A: The GI50 was 1490 nM.

Q: And the TGI [33]?
A: The TGI was 3210 nM.

Q: And the GI50 [34]?
A: Its GI50 is 1380 nM.

Q: What about the TGI [34] of the same molecule?
A: The TGI was 2800 nM.

Q: And the GI50 [35]?
A: Its GI50 is 1140 nM.

Q: And the TGI [35]?
A: The TGI was 2690 nM.

Q: And the GI50 [36]?
A: Its GI50 is 1950 nM.

Q: And the TGI [36]?
A: Its TGI is 3960 nM.

Q: What about the GI50 [37] of the same molecule?
A: Its GI50 is less than 17.9 nM.

Q: What about the TGI [37] of the same molecule?
A: Its TGI is 1610 nM.

Q: And the GI50 [38]?
A: Its GI50 is 5870 nM.

Q: And the TGI [38]?
A: Its TGI is 20500 nM.

Q: And the GI50 [39]?
A: Its GI50 is 1160 nM.

Q: What about the TGI [39] of the same molecule?
A: Its TGI is 2450 nM.

Q: And the GI50 [40]?
A: The GI50 was 216 nM.

Q: What about the TGI [40] of the same molecule?
A: The TGI was 895 nM.

Q: And the GI50 [41]?
A: Its GI50 is 789 nM.

Q: What about the TGI [41] of the same molecule?
A: The TGI was 2520 nM.

Q: What about the GI50 [42] of the same molecule?
A: Its GI50 is 1930 nM.

Q: And the TGI [42]?
A: The TGI was 3940 nM.

Q: And the GI50 [43]?
A: The GI50 was 1430 nM.

Q: And the TGI [43]?
A: Its TGI is 2850 nM.

Q: What about the GI50 [44] of the same molecule?
A: The GI50 was 5530 nM.

Q: And the TGI [44]?
A: The TGI was 10800 nM.

Q: What about the GI50 [45] of the same molecule?
A: Its GI50 is 1590 nM.

Q: What about the TGI [45] of the same molecule?
A: The TGI was 3120 nM.

Q: And the GI50 [46]?
A: Its GI50 is 51.4 nM.

Q: What about the TGI [46] of the same molecule?
A: The TGI was 590 nM.

Q: And the GI50 [47]?
A: The GI50 was 1110 nM.

Q: And the TGI [47]?
A: Its TGI is 2550 nM.

Q: And the GI50 [48]?
A: The GI50 was 223 nM.

Q: And the TGI [48]?
A: The TGI was 2010 nM.

Q: What about the GI50 [49] of the same molecule?
A: Its GI50 is 1610 nM.

Q: And the TGI [49]?
A: The TGI was 3230 nM.

Q: What about the GI50 [50] of the same molecule?
A: Its GI50 is 1650 nM.

Q: What about the TGI [50] of the same molecule?
A: Its TGI is 3380 nM.

Q: What about the GI50 [51] of the same molecule?
A: Its GI50 is 680 nM.

Q: And the TGI [51]?
A: The TGI was 2290 nM.

Q: What about the GI50 [52] of the same molecule?
A: The GI50 was 1320 nM.

Q: What about the TGI [52] of the same molecule?
A: The TGI was 2760 nM.

Q: And the GI50 [53]?
A: The GI50 was 1400 nM.

Q: And the TGI [53]?
A: The TGI was 3490 nM.

Q: What about the GI50 [54] of the same molecule?
A: Its GI50 is 1320 nM.

Q: What about the TGI [54] of the same molecule?
A: The TGI was 2900 nM.

Q: What about the GI50 [55] of the same molecule?
A: The GI50 was 1180 nM.

Q: And the TGI [55]?
A: Its TGI is 2480 nM.

Q: What about the GI50 [56] of the same molecule?
A: The GI50 was 1490 nM.

Q: And the TGI [56]?
A: The TGI was 2950 nM.

Q: And the GI50 [57]?
A: Its GI50 is 1500 nM.

Q: What about the TGI [57] of the same molecule?
A: The TGI was 3220 nM.

Q: What about the GI50 [58] of the same molecule?
A: Its GI50 is 795 nM.

Q: And the TGI [58]?
A: Its TGI is 2460 nM.
